Results published in patent US6482934B1, “Methods and compositions for detecting and treating kidney diseases associated with adhesion of crystals to kidney cells” (ARCH Development Corp., priority 1995, dated 2002).
pIC50, pKd: −log10 of the molar value. “Also recorded” adds a separate entry of the source. Counter-ions that a name gives are not always drawn. Like-named read-outs stand apart in the source and are kept apart here.

How the values were obtained:
BSC-1 cells [1] = test: [14C]COM crystal adhesion to BSC-1 cell monolayers; assay type: cell-based, African green monkey; conditions: for pIC50 / Half-maximal concentration: concentration that inhibited crystal adhesion by 50%; for pIC50 / pKd / Half-maximal concentration / Langmuir affinity constant (dissociation constant): N.I. = noninhibitory; for pIC50: read-out: Half-maximal concentration; for pKd / Langmuir affinity constant (dissociation constant): slope of Langmuir isotherm plot of crystal adhesion; for pKd: read-out: Langmuir affinity constant (dissociation constant); for effect on adhesion of COM crystals: concentrations as high as 1 μM
Experimental: (§1) Renal epithelial cells of the nontransformed African green monkey line (BSC-1) were used. Cells were grown in Dulbecco-Vogt modified Eagle's medium containing 25 mM glucose (DMEM), 1.6 μM biotin and 1% calf serum at 38° C. in a CO2 incubator. Under these conditions, BSC-1 cells achieved confluence at 10^6 cells per 60-mm plastic dish (Nunc). High-density, quiescent cultures were prepared by plating 2×10^6 cells in a 60-mm dish. The spent medium was changed after 3 days so that there were 3-4×10^6 cells/dish 6 days later. Medium was then aspirated and replaced with fresh medium containing […] and 0.01% calf serum; 3 days later the quiescent cultures were used for study.
Crystals are sterilized by heating to 180° C. overnight.
High-density, quiescent cultures of BSC-1 cells, MDCK cells, or Balb/c3T3 fibroblasts are prepared. At the time of assay, the medium is aspirated and replaced with 5 ml of phosphate-buffered saline (PBS) (10 mM Na2PO4, 155 mM NaCl, 5.4 mM KCl, pH 7.4 at 37° C.) to which the compound under investigation is added. […] The culture dishes are gently agitated for 5 seconds to uniformly distribute crystals which subsequently settle to the surface of the cell monolayer under the force of gravity. After two minutes buffer is aspirated and the cells are then washed three times with PBS (5 ml). The cell monolayer is then scraped directly into a scintillation vial containing 6 N HCl (0.5 ml) to which 4.5 ml of Ecoscint (National Diagnostics, E. Palmetto, Fla.) is added, and the amount of radioactivity is measured as described by Riese, et al. (1992).

BSC-1 cells [2] = test: Crystal endocytosis by BSC-1 cells; assay type: cell-based, African green monkey; conditions: for combined stimulatory effects on COM crystal endocytosis: ADP 200 μM and EGF 5 ng/ml
Experimental: as §1
(§2) At specified times after addition of crystals to high-density, quiescent cultures the medium was aspirated and a solution of crystalline trypsin was used to detach cells which were then inspected under a polarizing microscope. One hundred cells from each culture were counted, and each cell was scored for the presence of one or more internalized crystal(s).

BSC-1 cells [3] = test: Adhesion of agent-coated COM crystals to BSC-1 cells; assay type: cell-based, African green monkey; conditions: compared with uncoated control crystals
Experimental: Each tube is then centrifuged at 3000 g for 5 minutes. The supernatant is gently aspirated and replaced with a supersaturated calcium oxalate solution to resuspend the coated crystals. To assure removal of any nonabsorbed compound, crystals are resuspended and washed three times in succession. Cell-associated radioactivity is determined 2 minutes after addition of these coated crystals as described herein.

Balb/c3T3 fibroblasts = test: Crystal endocytosis by Balb/c3T3 fibroblasts; assay type: cell-based; conditions: 10 μg/ml; COM crystals 200 μg/ml
Experimental: Balb/c3T3 fibroblasts were grown in DMEM containing 10% calf serum. To prepare high-density, quiescent cultures, 7×10^5 cells were plated per 60-mm dish. Two days later the medium was aspirated and replaced with fresh medium containing 1% calf serum and 1.6 μM biotin; the cells were used one day later when a density of […] was reached.
as §2

MDCK cells = test: Crystal endocytosis by MDCK cells; assay type: cell-based, canine; conditions: 10 μg/ml; COM crystals 200 μg/ml
Experimental: Madin-Darby Canine Kidney (MDCK) cells were grown in DMEM containing 2% calf serum and 1.6 μM biotin as described previously. To prepare high-density, quiescent cultures 2×10^6 cells/60-mm dish were plated in DMEM containing 2% calf serum and 1.6 μM biotin. The next day medium was aspirated and replaced with fresh medium containing 0.5% calf serum and biotin. One day later the cultures were used for study.
as §2

| Molecule | effect on adhesion of COM crystals to BSC-1 cells (in words) (BSC-1 cells [1]) | concentration above which COM crystal adhesion was inhibited (BSC-1 cells [1]) | pIC50 (BSC-1 cells [1]) | pKd (BSC-1 cells [1]) | adhesion of crystals previously coated with the molecule (BSC-1 cells [3]) | other results |
| --- | --- | --- | --- | --- | --- | --- |
| CC(=O)NC1C(O)OC(CO)C(O)C1OC1OC(C(=O)O)=CC(O)C1O (stereo not shown) [0-S] | without effect | – | – | – | – | – |
| CC(=O)NC1C(O)OC(CO)C(OS(=O)(=O)O)C1OC1OC(C(=O)O)=CC(O)C1O (stereo not shown) [4-S] | without effect | – | – | – | – | – |
| CC(=O)NC1C(O)OC(COS(=O)(=O)O)C(O)C1OC1OC(C(=O)O)=CC(O)C1O (stereo not shown) [6-S] | without effect | – | – | – | – | – |
| Nc1ncnc2c1ncn2[C@@H]1O[C@H](COP(=O)(O)OP(=O)(O)O)[C@@H](O)[C@H]1O [ADP, adenosine diphosphate] | – | – | – | – | – | increase in COM crystal uptake compared to control (BSC-1 cells [2]; ADP 2 μM): 52%; combined stimulatory effects on COM crystal endocytosis (BSC-1 cells [2]): not additive |
| O=C(O)CC(CC(=O)O)(OP(=O)(O)O)C(=O)O [Phosphocitrate] | – | above 50 μM | 4.30 | 4.36 | – | – |
| O=C(O)CC(O)(CC(=O)O)C(=O)O [Sodium citrate] | inhibited binding of COM crystals | above 250 μM | – | 3.37 | – | pIC50 (BSC-1 cells [1]; Chlorocebus sabaeus, BSC-1): 3.70 |
| Chondroitin sulfate A | prevented binding of COM crystals | above 1.4 μM | 6.22 | 7.42 | – | – |
| Chondroitin sulfate B | prevented binding of COM crystals | > 0.4 µM | 7.00 | 6.69 | less than control | – |
| Chondroitin sulfate C | – | – | – | – | – | Half-maximal concentration (BSC-1 cells [1]): N.I.; effect on COM crystal adherence (BSC-1 cells [1]; concentrations as high as 37 μM): no effect; Langmuir affinity constant (dissociation constant) (BSC-1 cells [1]): N.I. |
| Dextran sulfate | – | > 0.01 µM | 8.00 | 7.89 | less than control | – |
| EGF: epidermal growth factor, mitogen | – | – | – | – | – | combined stimulatory effects on COM crystal endocytosis (BSC-1 cells [2]): not additive; increase in COM crystal endocytosis compared to control (BSC-1 cells [2]; EGF 10 ng/ml): 55% |
| Fibronectin | – | – | – | – | – | effect on crystal uptake by fibroblasts (Balb/c3T3 fibroblasts): did not alter crystal uptake by fibroblasts; maximal inhibition of COM crystal endocytosis (BSC-1 cells [2]; fibronectin 2.5 μg/ml): 33%; inhibition of COM crystal endocytosis by MDCK cells (MDCK cells): 59% |
| Heparan sulfate | prevented binding of COM crystals | above 0.8 μM | 7.00 | 6.06 | – | effect on endocytosis of COM crystals (BSC-1 cells [2]; heparan sulfate 2-25 μg/ml): did not alter endocytosis of COM crystals |
| Hyaluronic acid | prevented binding of COM crystals | above 0.01 μM | 7.70 | 7.89 | – | – |
| Pentosan polysulfate | – | above 0.33 μM | 7.70 | 6.88 | – | – |
| Polyarginine | – | – | – | – | to the same extent as did uncoated crystals | Half-maximal concentration (BSC-1 cells [1]): N.I.; effect on adhesion of COM crystals (BSC-1 cells [1]): no effect; Langmuir affinity constant (dissociation constant) (BSC-1 cells [1]): N.I. |
| Polyaspartic acid | blocked adherence of COM crystals | above 0.007 μM | 8.15 | 7.64 | less than control | – |
| Polyglutamic acid | blocked adherence of COM crystals | > 0.02 µM | 8.00 | 7.59 | less than control | – |
| Polylysine | – | – | 5.60 | – | to the same extent as did uncoated crystals | effect on adhesion of COM crystals (BSC-1 cells [1]): no effect |
| Polyvinyl sulfate | – | > 0.1 µM | 7.70 | 7.31 | – | – |
| Uropontin: urinary glycoprotein, inhibitor of COM crystal growth | inhibited binding of COM crystals; also recorded: blocking adhesion of COM crystals to BSC-1 cells | – | 7.70 | 7.37 | less than control | block of COM crystal binding (BSC-1 cells [1]; uropontin 0.1 μM): 73% |
| albumin | – | – | – | – | to the same extent as did uncoated crystals | – |
| arginine-glycine-aspartic acid-serine [RGDS] | – | – | – | – | – | effect on crystal uptake by fibroblasts (Balb/c3T3 fibroblasts): did not alter crystal uptake by fibroblasts; inhibition of COM crystal endocytosis compared to control (BSC-1 cells [2]; RGDS 5 μg/ml): 30%; combined inhibitory effects on COM crystal endocytosis (BSC-1 cells [2]; RGDS 10 μg/ml, heparin 5 μg/ml and TGF-β2 2 ng/ml): not additive; maximal inhibition of COM crystal endocytosis (BSC-1 cells [2]; RGDS at higher concentrations (above 5 μg/ml)): 41%; inhibition of COM crystal endocytosis by MDCK cells (MDCK cells): 48% |
| protamine sulfate | – | – | – | – | – | effect on heparin inhibition of crystal binding, added after heparin (BSC-1 cells [1]; after 30 minutes exposure to heparin): completely reversed inhibition of crystal binding; effect on heparin inhibition of crystal adhesion, added together with heparin (BSC-1 cells [1]; protamine sulfate 100 μg/ml with heparin 10 μg/ml): abolished the polyanion's inhibitory effect; effect on crystal adhesion, alone (BSC-1 cells [1]; protamine sulfate alone): inert |
